Laboratory results as given in patent US20130065959A1, “SANITIZING MEAT WITH PERACID AND 2-HYDROXY ORGANIC ACID COMPOSITIONS” (Fresh Express Incorporated, priority 2009, published 2013).

What was measured:
Type in all cases: cell-based
[1] = system: Pseudomonas aeruginosa (ATCC 9027); experiment: Attached cells on non-food surface coupons (Example 6); settings: 90 sec
Experimental: Inoculum preparation: Pseudomonas aeruginosa (ATCC 9027) freeze dried culture was rehydrated in 10 mL of sterilized nutrient broth (NB) and mixed homogeneously. 0.1 mL of the stock solution was transferred to 10 mL of NB and incubated at 37C for 24 h. Enrichment was streaked to confirm purity. 10 mL of the enriched stock was transferred to 1,000 mL of NB and incubated at 37C for 24 h resulting in ˜10^8 cfu/mL stationary phase culture stock. The stock was cooled at 4C for 1 h. Microbial population of the stationary phase stock culture was enumerated by means of serial dilution with 9-mL Butterfield phosphate buffer tubes and spread plating on Nutrient Agar […] pre-poured agar plates.
Non-food surface inoculation: The 1000 mL˜10^8 cfu/mL stock culture solution was homogeneously mixed by shaking and swirling the Erlenmeyer flask. The 1000 mL culture was separated into 20 centrifuge tubes (50 mL each) and centrifuged at 10,000 rpm and 4C for 15 min. The stock culture pellet was re-suspended with 50 mL of NB. All the re-suspended cultures from the 20 centrifuge tubes were combined to form 1,000 mL˜10^8 cfu/mL inoculating stock culture. 15 mL of the P. aeruginosa inoculating stock together with a non-food surface coupon (2.5 cm×5 cm) were placed in a sterilized 50mL-centrifuge tube and incubated for 24 h at 37C. After 24 hr, the coupon was transferred to a sterile Petri dish and placed in an oven to dry for 1 hour at 35C. The coupons were cut from stainless steel sheet, wood, glass slide, and plastic sheet.
Treatment of inoculated non-food surfaces: 1 mL of test solution was dispensed onto a 2.5cm×2.5 cm marked area of each inoculated coupon for 60 s. A pre-wet sterilized cotton swab was dipped in 10 mL Butterfield phosphate buffer with sodium thiosulfate and swabbed the marked area on the coupon after 60 s exposure. The swabbed was then immediately placed into the 10 mL Butterfield phosphate buffer with sodium thiosulfate and mixed. One mL was immediately transferred from the aforementioned tube to a 9 mL Butterfield phosphate buffer. The total treatment time including the exposure time, the swabbing time, and the transfer time was 90 s. Each solution treatment was performed in duplications. The reduction for each solution treatment was compared to that of the city water treatment.

[2] = system: E. coli K-12 (ATCC 25253); experiment: Attached cells on chicken wing skin (Example 8); settings: Middle chicken wing skin, 10.5 min
Experimental: Inoculum preparation: ATCC freeze dried culture was rehydrated in 10 mL of sterilized TSB and mixed homogeneously. 0.1 mL of the stock solution was transferred to 10 mL of TSB and incubated at 37C for 24 h. Enrichment was streaked to confirm purity. 2 mL of the enriched stock was transferred to 200 mL of TSB and incubated at 37C for 24 h for E. coli K-12 (ATCC 25253) (EC) resulting in ˜10^8 cfu/mL stationary phase culture stock. The stock was cooled at 4C for 1 h. Microbial population of the stationary phase stock culture was enumerated by means of serial dilution with 9-mL Butterfield phosphate buffer tubes and spread plating on Tryptic Soy Agar (TSA) pre-poured agar plates for EC
Chicken wing surface inoculation: The 200 mL ˜10^8cfu/mL stock culture solution was homogeneously mixed by shaking and swirling the Erlenmeyer flask. The 200 mL culture was separated into 4 centrifuge tubes (50 mL each) and centrifuged at 10,000 rpm and 4C for 15 min. The stock culture pellet was re-suspended with 5 mL of 5% Horse Serum. All the re-suspended cultures from the four centrifuge tubes were combined to form 20 mL˜10^9 cfu/mL inoculating stock culture. The chicken middle wing was pat dried by paper towel. A permanent marker was used to mark a 2.5 cm×2.5 cm square at the middle of the flat surface of the chicken wing for inoculation. 50 uL inoculum in the form of 2 uL droplets were spiked onto the marked square on the chicken wing skin. The inoculated chicken wing was placed into a sterile polypropylene basket. The spiked chicken wing inside the polypropylene basket was dried inside a biological safety cabinet for 120 min at 18 to 24C.
Treatment of inoculated chicken wing: Each sample of inoculated chicken wing was placed into a 2.5L stomacher bag containing 500 mL of the tested solution for 10 minutes with intermittent 30 s-shakings at 0, 4, and 9 min. The tested solutions included city water, lactic acid solution (LA), peracetic acid solution (PA), and FreshRinse solution (FR). The treated chicken wing was immediately removed from the treatment solution after 10 min and placed into a sterilized Petri-dish with the marked side facing up. A pre-wet sterilized swab dipped in 10 mL Butterfield phosphate buffer with sodium thiosulfate was used to swab the marked area. After swabbing the cotton wool swab was immediately placed back into the 10 mL Butterfield phosphate buffer with sodium thiosulfate and mixed. One mL was immediately transferred from the aforementioned tube to a 9 mL Butterfield phosphate buffer. The total treatment time including the exposure time, the swabbing time, and the transfer time was 10.5 min. Each solution treatment was performed in duplications. The reduction for each solution treatment was compared to that of the city water treatment

[3] = system: Listeria innocua; experiment: Attached cells challenge test on produce leaves (Example 1)

CC(=O)OO [Peroxyacetic acid, peroxyacetic acid]
Log reductions ([1]; Glass coupon, PA 60 ppm, LA 0 ppm): 0.2
Log reductions ([1]; Glass coupon, PA 80 ppm, LA 0 ppm): 0.0
Log reductions ([1]; Plastic coupon, PA 60 ppm, LA 0 ppm): 1.2
Log reductions ([1]; Plastic coupon, PA 80 ppm, LA 0 ppm): 0.9
Log reductions ([1]; Stainless steel coupon, PA 60 ppm, LA 0 ppm): 1.5
Log reductions ([1]; Stainless steel coupon, PA 100 ppm, LA 0 ppm): 1.4
Log reductions ([1]; Wood coupon, PA 100 ppm, LA 0 ppm): 1.0
Log reductions ([1]; Wood coupon, PA 140 ppm, LA 0 ppm): 0.8
Log reductions ([2]; PA 40 ppm, LA 0 ppm): 0.6
Log reductions ([2]; PA 60 ppm, LA 0 ppm): 0.5
Log reductions ([2]; PA 80 ppm, LA 0 ppm): 1.0
Log reduction, attached cells ([3]; Romaine, PAA 60 ppm, LA 0.0%): 0.6
Log reduction, attached cells ([3]; Romaine, PAA 70 ppm, LA 0.0%): 1.0
Log reduction, attached cells ([3]; Romaine, PAA 80 ppm, LA 0.0%): 1.7
Log reduction, attached cells ([3]; Spinach, PAA 60 ppm, LA 0.0%): 0.3
Log reduction, attached cells ([3]; Spinach, PAA 70 ppm, LA 0.0%): 0.5
Log reduction, attached cells ([3]; Spinach, PAA 80 ppm, LA 0.0%): 1.2

CC(O)C(=O)O (stereo not drawn) [Lactic Acid, lactic acid]
Log reductions ([1]; Glass coupon, PA 0 ppm, LA 1,250 ppm): 0.4
Log reductions ([1]; Glass coupon, PA 0 ppm, LA 2,500 ppm): 1.7
Log reductions ([1]; Plastic coupon, PA 0 ppm, LA 2,500 ppm): 0.6
Log reductions ([1]; Plastic coupon, PA 0 ppm, LA 5,000 ppm): 1.2
Log reductions ([1]; Stainless steel coupon, PA 0 ppm, LA 1,250 ppm): 1.6
Log reductions ([1]; Stainless steel coupon, PA 0 ppm, LA 2,500 ppm): 1.9
Log reductions ([1]; Wood coupon, PA 0 ppm, LA 2,500 ppm): 1.4
Log reductions ([1]; Wood coupon, PA 0 ppm, LA 7,500 ppm): 3.6
Log reductions ([2]; PA 0 ppm, LA 5,000 ppm): 0.3
Log reductions ([2]; PA 0 ppm, LA 10,000 ppm): 0.7
Log reduction, attached cells ([3]; Romaine, PAA 0 ppm, LA 0.6%): 1.1
Log reduction, attached cells ([3]; Romaine, PAA 0 ppm, LA 0.9%): 1.4
Log reduction, attached cells ([3]; Romaine, PAA 0 ppm, LA 1.2%): 1.5
Log reduction, attached cells ([3]; Spinach, PAA 0 ppm, LA 0.6%): 0.1
Log reduction, attached cells ([3]; Spinach, PAA 0 ppm, LA 0.9%): 0.2
Log reduction, attached cells ([3]; Spinach, PAA 0 ppm, LA 1.2%): 0.2
